Key:
Assay in all cases: KINOMEscan scanMAX
Assay type in all cases: binding
FGFR4 = target: T1, FGFR4 (Homo sapiens, UniProt P22455); details: read-out: Percent Control
T1 construct: purchased Eurofins Discovery (DiscoverX KINOMEscan scanMAX)
Protocol: (§1) The kinome-wide binding assay was performed by Eurofins Discovery using the scanMAX screening platform. More information can be found on the Eurofins Discovery Web site.

PIK3CB = target: T2, PIK3CB (Homo sapiens, UniProt P42338); details: read-out: Percent Control
T2 construct: purchased Eurofins Discovery (DiscoverX KINOMEscan scanMAX)
Protocol: as §1

VEGFR2 = target: T3, VEGFR2 (Homo sapiens, UniProt P35968); details: read-out: Percent Control
T3 construct: purchased Eurofins Discovery (DiscoverX KINOMEscan scanMAX)
Protocol: as §1

PKAC-alpha = target: T4, PKAC-alpha (Homo sapiens, UniProt P17612); details: read-out: Percent Control
T4 construct: purchased Eurofins Discovery (DiscoverX KINOMEscan scanMAX)
Protocol: as §1

PIP5K1C = target: T5, PIP5K1C (Homo sapiens, UniProt O60331); details: read-out: Percent Control
T5 construct: purchased Eurofins Discovery (DiscoverX KINOMEscan scanMAX)
Protocol: as §1

PDGFRA = target: T6, PDGFRA (Homo sapiens, UniProt P16234); details: read-out: Percent Control
T6 construct: purchased Eurofins Discovery (DiscoverX KINOMEscan scanMAX)
Protocol: as §1

ADCK3 = target: T7, ADCK3 (Homo sapiens, UniProt Q8NI60); details: read-out: Percent Control
T7 construct: purchased Eurofins Discovery (DiscoverX KINOMEscan scanMAX)
Protocol: as §1

TSSK3 = target: T8, TSSK3 (Homo sapiens, UniProt Q96PN8); details: read-out: Percent Control
T8 construct: purchased Eurofins Discovery (DiscoverX KINOMEscan scanMAX)
Protocol: as §1

CDK7 = target: T9, CDK7 (Homo sapiens, UniProt P50613); details: read-out: Percent Control
T9 construct: purchased Eurofins Discovery (DiscoverX KINOMEscan scanMAX)
Protocol: as §1

PFTK1 = target: T10, PFTK1 (Homo sapiens, UniProt O94921); details: read-out: Percent Control
T10 construct: purchased Eurofins Discovery (DiscoverX KINOMEscan scanMAX)
T10 sequence (O94921 whole entry): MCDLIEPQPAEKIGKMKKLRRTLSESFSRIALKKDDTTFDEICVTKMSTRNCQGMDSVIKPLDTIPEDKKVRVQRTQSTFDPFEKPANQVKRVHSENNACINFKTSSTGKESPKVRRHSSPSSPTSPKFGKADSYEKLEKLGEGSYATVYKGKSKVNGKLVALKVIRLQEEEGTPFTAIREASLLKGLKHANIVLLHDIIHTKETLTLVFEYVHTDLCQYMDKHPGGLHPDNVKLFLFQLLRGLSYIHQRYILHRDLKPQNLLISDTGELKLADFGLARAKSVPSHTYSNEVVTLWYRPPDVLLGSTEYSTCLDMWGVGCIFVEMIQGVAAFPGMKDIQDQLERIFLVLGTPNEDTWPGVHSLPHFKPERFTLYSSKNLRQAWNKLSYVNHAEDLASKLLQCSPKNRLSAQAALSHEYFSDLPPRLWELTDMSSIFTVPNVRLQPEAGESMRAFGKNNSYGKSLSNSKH
Protocol: as §1

DDR1 = target: T11, DDR1 (Homo sapiens, UniProt Q08345); details: read-out: Percent Control
T11 construct: purchased Eurofins Discovery (DiscoverX KINOMEscan scanMAX)
Protocol: as §1

EPHB6 = target: T12, EPHB6 (Homo sapiens, UniProt O15197); details: read-out: Percent Control
T12 construct: purchased Eurofins Discovery (DiscoverX KINOMEscan scanMAX)
Protocol: as §1

FLT3(ITD) = tested on: FLT3(ITD)
Protocol: as §1

TAOK2 = target: T13, TAOK2 (Homo sapiens, UniProt Q9UL54); details: read-out: Percent Control
T13 construct: purchased Eurofins Discovery (DiscoverX KINOMEscan scanMAX)
Protocol: as §1

AKT2 = target: T14, AKT2 (Homo sapiens, UniProt P31751); details: read-out: Percent Control
T14 construct: purchased Eurofins Discovery (DiscoverX KINOMEscan scanMAX)
T14 sequence (P31751 whole entry): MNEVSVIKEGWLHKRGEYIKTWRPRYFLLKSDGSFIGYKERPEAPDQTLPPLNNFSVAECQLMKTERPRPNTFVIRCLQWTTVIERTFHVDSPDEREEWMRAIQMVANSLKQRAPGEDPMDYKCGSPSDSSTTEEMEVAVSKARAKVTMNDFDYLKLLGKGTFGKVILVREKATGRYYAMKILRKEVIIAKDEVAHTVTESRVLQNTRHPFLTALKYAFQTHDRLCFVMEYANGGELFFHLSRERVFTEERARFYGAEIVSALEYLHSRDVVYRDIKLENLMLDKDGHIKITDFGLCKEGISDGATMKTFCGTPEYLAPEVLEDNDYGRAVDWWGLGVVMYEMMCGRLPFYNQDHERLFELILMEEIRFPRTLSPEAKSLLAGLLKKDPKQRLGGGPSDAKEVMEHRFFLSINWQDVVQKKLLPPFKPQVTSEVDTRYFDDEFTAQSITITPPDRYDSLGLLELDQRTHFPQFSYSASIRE
Protocol: as §1

ROS1 = target: T15, ROS1 (Homo sapiens, UniProt P08922); details: read-out: Percent Control
T15 construct: purchased Eurofins Discovery (DiscoverX KINOMEscan scanMAX)
Protocol: as §1

FLT3(K663Q) = target: T16, FLT3(K663Q) (Homo sapiens, UniProt P36888, K663Q); details: read-out: Percent Control
T16 construct: purchased Eurofins Discovery (DiscoverX KINOMEscan scanMAX)
Protocol: as §1

SRMS = target: T17, SRMS (Homo sapiens, UniProt Q9H3Y6); details: read-out: Percent Control
T17 construct: purchased Eurofins Discovery (DiscoverX KINOMEscan scanMAX)
Protocol: as §1

GSK3B = target: T18, GSK3B (Homo sapiens, UniProt P49841); details: read-out: Percent Control
T18 construct: purchased Eurofins Discovery (DiscoverX KINOMEscan scanMAX)
Protocol: as §1

WNK1 = target: T19, WNK1 (Homo sapiens, UniProt Q9H4A3); details: read-out: Percent Control
T19 construct: purchased Eurofins Discovery (DiscoverX KINOMEscan scanMAX)
Protocol: as §1

RIOK2 = target: T20, RIOK2 (Homo sapiens, UniProt Q9BVS4); details: read-out: Percent Control
T20 construct: purchased Eurofins Discovery (DiscoverX KINOMEscan scanMAX)
Protocol: as §1

EGFR(G719S) = target: T21, EGFR(G719S) (Homo sapiens, UniProt P00533, G719S); details: read-out: Percent Control
T21 construct: purchased Eurofins Discovery (DiscoverX KINOMEscan scanMAX)
T21 sequence (P00533 25-1210 G719S): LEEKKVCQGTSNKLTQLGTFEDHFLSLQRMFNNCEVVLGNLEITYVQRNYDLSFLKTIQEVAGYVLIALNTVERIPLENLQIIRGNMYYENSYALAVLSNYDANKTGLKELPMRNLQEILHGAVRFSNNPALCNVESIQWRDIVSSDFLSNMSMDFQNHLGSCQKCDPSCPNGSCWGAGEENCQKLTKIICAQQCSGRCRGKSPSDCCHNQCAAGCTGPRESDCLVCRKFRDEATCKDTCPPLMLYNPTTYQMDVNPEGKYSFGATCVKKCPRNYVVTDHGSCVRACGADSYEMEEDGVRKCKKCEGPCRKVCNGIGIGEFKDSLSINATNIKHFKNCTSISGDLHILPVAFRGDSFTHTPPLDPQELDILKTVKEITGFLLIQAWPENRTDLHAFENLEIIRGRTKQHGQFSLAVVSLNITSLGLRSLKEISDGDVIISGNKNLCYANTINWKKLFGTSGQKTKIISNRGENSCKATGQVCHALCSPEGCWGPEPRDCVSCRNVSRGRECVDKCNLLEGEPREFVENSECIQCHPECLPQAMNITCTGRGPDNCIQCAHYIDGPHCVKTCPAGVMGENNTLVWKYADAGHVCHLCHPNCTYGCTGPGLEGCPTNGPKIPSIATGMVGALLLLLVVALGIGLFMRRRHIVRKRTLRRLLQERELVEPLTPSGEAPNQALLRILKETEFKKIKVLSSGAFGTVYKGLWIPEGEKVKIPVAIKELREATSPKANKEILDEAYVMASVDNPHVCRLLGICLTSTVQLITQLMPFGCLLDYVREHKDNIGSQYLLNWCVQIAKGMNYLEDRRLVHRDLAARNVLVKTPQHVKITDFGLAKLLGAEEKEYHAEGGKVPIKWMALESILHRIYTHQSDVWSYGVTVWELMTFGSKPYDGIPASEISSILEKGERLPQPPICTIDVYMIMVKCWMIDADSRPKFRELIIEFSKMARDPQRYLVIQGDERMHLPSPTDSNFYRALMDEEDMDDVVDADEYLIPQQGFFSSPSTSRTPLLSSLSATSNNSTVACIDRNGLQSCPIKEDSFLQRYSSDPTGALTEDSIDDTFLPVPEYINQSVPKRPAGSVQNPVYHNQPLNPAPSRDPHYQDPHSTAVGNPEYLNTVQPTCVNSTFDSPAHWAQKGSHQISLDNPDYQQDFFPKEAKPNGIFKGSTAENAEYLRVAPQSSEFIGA
Protocol: as §1

ACVRL1 = target: T22, ACVRL1 (Homo sapiens, UniProt P37023); details: read-out: Percent Control
T22 construct: purchased Eurofins Discovery (DiscoverX KINOMEscan scanMAX)
Protocol: as §1

[1] = target: T23, ABL1(F317L)-phosphorylated (Homo sapiens, UniProt P00519, F317L); details: read-out: Percent Control
T23 construct: purchased Eurofins Discovery (DiscoverX KINOMEscan scanMAX)
T23 sequence (P00519 whole entry F317L): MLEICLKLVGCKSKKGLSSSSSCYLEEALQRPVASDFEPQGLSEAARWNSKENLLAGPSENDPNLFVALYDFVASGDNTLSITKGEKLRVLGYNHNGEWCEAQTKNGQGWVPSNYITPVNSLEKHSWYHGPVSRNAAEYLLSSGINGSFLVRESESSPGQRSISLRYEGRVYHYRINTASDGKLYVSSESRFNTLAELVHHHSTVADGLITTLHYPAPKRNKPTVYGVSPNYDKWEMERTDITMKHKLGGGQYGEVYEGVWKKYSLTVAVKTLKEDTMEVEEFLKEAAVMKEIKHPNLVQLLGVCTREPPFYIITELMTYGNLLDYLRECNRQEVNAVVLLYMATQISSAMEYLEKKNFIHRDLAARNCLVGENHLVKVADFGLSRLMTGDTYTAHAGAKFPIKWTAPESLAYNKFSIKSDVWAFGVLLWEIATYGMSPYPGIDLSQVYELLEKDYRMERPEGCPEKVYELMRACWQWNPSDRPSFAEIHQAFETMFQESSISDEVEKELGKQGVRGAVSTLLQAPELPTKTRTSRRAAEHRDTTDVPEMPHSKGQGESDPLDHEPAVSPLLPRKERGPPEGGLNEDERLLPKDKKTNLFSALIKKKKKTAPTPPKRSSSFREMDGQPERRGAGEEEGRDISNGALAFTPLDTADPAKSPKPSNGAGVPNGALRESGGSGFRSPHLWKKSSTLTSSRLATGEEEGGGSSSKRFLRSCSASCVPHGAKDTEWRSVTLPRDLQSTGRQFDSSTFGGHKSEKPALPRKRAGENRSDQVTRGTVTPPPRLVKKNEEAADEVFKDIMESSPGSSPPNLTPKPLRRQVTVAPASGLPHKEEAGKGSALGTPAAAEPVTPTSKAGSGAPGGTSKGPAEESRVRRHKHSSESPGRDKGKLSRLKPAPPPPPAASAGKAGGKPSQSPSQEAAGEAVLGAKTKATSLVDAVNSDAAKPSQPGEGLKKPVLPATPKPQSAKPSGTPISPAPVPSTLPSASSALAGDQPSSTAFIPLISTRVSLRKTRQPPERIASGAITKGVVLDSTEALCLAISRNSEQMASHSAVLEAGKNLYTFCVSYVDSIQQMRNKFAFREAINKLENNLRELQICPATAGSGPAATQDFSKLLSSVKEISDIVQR
Protocol: as §1

GRK7 = target: T24, GRK7 (Homo sapiens, UniProt Q8WTQ7); details: read-out: Percent Control
T24 construct: purchased Eurofins Discovery (DiscoverX KINOMEscan scanMAX)
Protocol: as §1

NDR1 = target: T25, NDR1 (Homo sapiens, UniProt Q15208); details: read-out: Percent Control
T25 construct: purchased Eurofins Discovery (DiscoverX KINOMEscan scanMAX)
T25 sequence (Q15208 whole entry): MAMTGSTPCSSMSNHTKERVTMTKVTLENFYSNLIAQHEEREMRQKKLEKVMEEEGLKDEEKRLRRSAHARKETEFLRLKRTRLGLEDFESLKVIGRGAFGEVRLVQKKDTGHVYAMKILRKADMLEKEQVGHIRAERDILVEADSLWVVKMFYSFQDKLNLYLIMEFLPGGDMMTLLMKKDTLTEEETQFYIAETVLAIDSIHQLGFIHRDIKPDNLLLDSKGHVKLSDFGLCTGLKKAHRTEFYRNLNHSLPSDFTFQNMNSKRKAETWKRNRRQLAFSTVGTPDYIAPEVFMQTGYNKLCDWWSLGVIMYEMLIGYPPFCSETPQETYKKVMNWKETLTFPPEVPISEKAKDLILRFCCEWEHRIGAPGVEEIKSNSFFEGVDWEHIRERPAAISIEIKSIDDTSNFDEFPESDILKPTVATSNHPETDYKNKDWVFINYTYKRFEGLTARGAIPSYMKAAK
Protocol: as §1

PCTK1 = target: T26, PCTK1 (Homo sapiens, UniProt Q00536); details: read-out: Percent Control
T26 construct: purchased Eurofins Discovery (DiscoverX KINOMEscan scanMAX)
Protocol: as §1

EGFR(E746-A750del) = target: T27, EGFR(E746-A750del) (Homo sapiens, UniProt P00533, DEL746-750); details: read-out: Percent Control
T27 construct: purchased Eurofins Discovery (DiscoverX KINOMEscan scanMAX)
Protocol: as §1

EPHA3 = target: T28, EPHA3 (Homo sapiens, UniProt P29320); details: read-out: Percent Control
T28 construct: purchased Eurofins Discovery (DiscoverX KINOMEscan scanMAX)
T28 sequence (P29320 21-983): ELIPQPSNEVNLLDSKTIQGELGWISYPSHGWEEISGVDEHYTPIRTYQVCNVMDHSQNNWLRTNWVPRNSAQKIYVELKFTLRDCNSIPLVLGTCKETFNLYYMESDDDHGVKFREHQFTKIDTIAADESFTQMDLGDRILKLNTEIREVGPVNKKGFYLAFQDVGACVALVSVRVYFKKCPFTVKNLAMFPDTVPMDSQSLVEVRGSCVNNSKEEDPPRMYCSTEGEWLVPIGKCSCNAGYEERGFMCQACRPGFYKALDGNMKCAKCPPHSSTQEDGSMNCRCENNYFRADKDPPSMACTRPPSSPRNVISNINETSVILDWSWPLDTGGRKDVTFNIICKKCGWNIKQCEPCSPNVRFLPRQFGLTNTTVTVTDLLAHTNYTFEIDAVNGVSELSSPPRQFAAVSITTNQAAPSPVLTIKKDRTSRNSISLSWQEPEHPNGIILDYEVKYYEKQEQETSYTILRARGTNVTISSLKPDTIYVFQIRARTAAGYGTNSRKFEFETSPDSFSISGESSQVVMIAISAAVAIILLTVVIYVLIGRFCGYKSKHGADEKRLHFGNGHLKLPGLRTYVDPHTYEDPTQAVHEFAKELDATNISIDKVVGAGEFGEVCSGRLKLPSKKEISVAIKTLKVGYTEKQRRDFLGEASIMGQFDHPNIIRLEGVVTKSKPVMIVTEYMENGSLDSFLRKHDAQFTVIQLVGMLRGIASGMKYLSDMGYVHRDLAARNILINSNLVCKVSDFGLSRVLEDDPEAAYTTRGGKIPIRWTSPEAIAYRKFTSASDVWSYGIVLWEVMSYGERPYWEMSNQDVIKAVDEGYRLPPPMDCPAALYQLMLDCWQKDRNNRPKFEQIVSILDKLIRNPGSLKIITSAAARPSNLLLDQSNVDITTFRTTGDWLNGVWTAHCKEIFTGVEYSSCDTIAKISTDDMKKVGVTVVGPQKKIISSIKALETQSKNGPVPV
Protocol: as §1

[2] = target: T29, RSK2(Kin.Dom.2-C-terminal) (Homo sapiens, UniProt P51812); details: read-out: Percent Control
T29 construct: RSK2(Kin.Dom.2-C-terminal); purchased Eurofins Discovery (DiscoverX KINOMEscan scanMAX)
T29 sequence (P51812 398-740 limits assumed): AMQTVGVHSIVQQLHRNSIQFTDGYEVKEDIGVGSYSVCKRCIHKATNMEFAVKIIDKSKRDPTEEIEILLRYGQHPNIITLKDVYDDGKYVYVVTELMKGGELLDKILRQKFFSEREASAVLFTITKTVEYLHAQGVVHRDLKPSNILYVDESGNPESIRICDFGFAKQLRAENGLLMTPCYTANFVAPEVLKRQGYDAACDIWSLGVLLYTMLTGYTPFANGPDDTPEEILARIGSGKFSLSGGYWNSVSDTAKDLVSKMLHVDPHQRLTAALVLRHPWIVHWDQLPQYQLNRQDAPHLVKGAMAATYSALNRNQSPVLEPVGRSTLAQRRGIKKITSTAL
Protocol: as §1

BMPR2 = target: T30, BMPR2 (Homo sapiens, UniProt Q13873); details: read-out: Percent Control
T30 construct: purchased Eurofins Discovery (DiscoverX KINOMEscan scanMAX)
Protocol: as §1

STK36 = target: T31, STK36 (Homo sapiens, UniProt Q9NRP7); details: read-out: Percent Control
T31 construct: purchased Eurofins Discovery (DiscoverX KINOMEscan scanMAX)
Protocol: as §1

DLK = target: T32, DLK (Homo sapiens, UniProt Q12852); details: read-out: Percent Control
T32 construct: purchased Eurofins Discovery (DiscoverX KINOMEscan scanMAX)
Protocol: as §1

CDKL3 = target: T33, CDKL3 (Homo sapiens, UniProt Q8IVW4); details: read-out: Percent Control
T33 construct: purchased Eurofins Discovery (DiscoverX KINOMEscan scanMAX)
Protocol: as §1

`Cc1cc(Nc2ccc(F)c(CC3(C(=O)N4CCC(F)(CN5CCN(c6ccc(N7CCC(=O)NC7=O)cn6)CC5)CC4)CCN(Cc4cccc(Cl)c4F)CC3)n2)n[nH]1` [SK5527] showed a remaining binding at 0.1 µM (FGFR4; 100 nM) of 89%, a remaining binding at 1 µM (FGFR4; 1000 nM) of 89% and a remaining binding at 0.1 µM (PIK3CB; 100 nM) of 78%. For the same compound, the remaining binding at 1 µM (PIK3CB; 1000 nM) was 95%, the remaining binding at 0.1 µM (VEGFR2; 100 nM) was 85% and the remaining binding at 1 µM (VEGFR2; 1000 nM) was 65%. The remaining binding at 0.1 µM (PKAC-alpha; 100 nM) was 83%, the remaining binding at 1 µM (PKAC-alpha; 1000 nM) was 86% and the remaining binding at 0.1 µM (PIP5K1C; 100 nM) was 100%. The remaining binding at 1 µM (PIP5K1C; 1000 nM) was 94%, the remaining binding at 0.1 µM (PDGFRA; 100 nM) was 92% and the remaining binding at 1 µM (PDGFRA; 1000 nM) was 84%. For the same compound, the remaining binding at 0.1 µM (ADCK3; 100 nM) was 100%, the remaining binding at 1 µM (ADCK3; 1000 nM) was 99% and the remaining binding at 0.1 µM (TSSK3; 100 nM) was 95%. For the same compound, the remaining binding at 1 µM (TSSK3; 1000 nM) was 99%, the remaining binding at 0.1 µM (CDK7; 100 nM) was 91% and the remaining binding at 1 µM (CDK7; 1000 nM) was 100%. It also gave a remaining binding at 0.1 µM (PFTK1; 100 nM) of 100%, a remaining binding at 1 µM (PFTK1; 1000 nM) of 95% and a remaining binding at 0.1 µM (DDR1; 100 nM) of 98%. The remaining binding at 1 µM (DDR1; 1000 nM) was 93%, the remaining binding at 0.1 µM (EPHB6; 100 nM) was 93% and the remaining binding at 1 µM (EPHB6; 1000 nM) was 85%. The “Percent Control” value (FLT3(ITD); 100 nM) was 89%, the “Percent Control” value (FLT3(ITD); 1000 nM) was 94% and the remaining binding at 0.1 µM (TAOK2; 100 nM) was 100%. For the same compound, the remaining binding at 1 µM (TAOK2; 1000 nM) was 100%, the remaining binding at 0.1 µM (AKT2; 100 nM) was 98% and the remaining binding at 1 µM (AKT2; 1000 nM) was 98%. The remaining binding at 0.1 µM (ROS1; 100 nM) was 61%, the remaining binding at 1 µM (ROS1; 1000 nM) was 16% and the remaining binding at 0.1 µM (FLT3(K663Q); 100 nM) was 81%. For the same compound, the remaining binding at 1 µM (FLT3(K663Q); 1000 nM) was 79%, the remaining binding at 0.1 µM (SRMS; 100 nM) was 90% and the remaining binding at 1 µM (SRMS; 1000 nM) was 82%. For the same compound, the remaining binding at 0.1 µM (GSK3B; 100 nM) was 82%, the remaining binding at 1 µM (GSK3B; 1000 nM) was 78% and the remaining binding at 0.1 µM (WNK1; 100 nM) was 73%. It also gave a remaining binding at 1 µM (WNK1; 1000 nM) of 77%, a remaining binding at 0.1 µM (RIOK2; 100 nM) of 93% and a remaining binding at 1 µM (RIOK2; 1000 nM) of 64%. The remaining binding at 0.1 µM (EGFR(G719S); 100 nM) was 94%, the remaining binding at 1 µM (EGFR(G719S); 1000 nM) was 100% and the remaining binding at 0.1 µM (ACVRL1; 100 nM) was 100%. The remaining binding at 1 µM (ACVRL1; 1000 nM) was 100%, the remaining binding at 0.1 µM ([1]; 100 nM) was 92% and the remaining binding at 1 µM ([1]; 1000 nM) was 68%. For the same compound, the remaining binding at 0.1 µM (GRK7; 100 nM) was 100%, the remaining binding at 1 µM (GRK7; 1000 nM) was 56% and the remaining binding at 0.1 µM (NDR1; 100 nM) was 98%. The remaining binding at 1 µM (NDR1; 1000 nM) was 82%, the remaining binding at 0.1 µM (PCTK1; 100 nM) was 89% and the remaining binding at 1 µM (PCTK1; 1000 nM) was 88%. It also gave a remaining binding at 0.1 µM (EGFR(E746-A750del); 100 nM) of 78%, a remaining binding at 1 µM (EGFR(E746-A750del); 1000 nM) of 70% and a remaining binding at 0.1 µM (EPHA3; 100 nM) of 99%. For the same compound, the remaining binding at 1 µM (EPHA3; 1000 nM) was 71%, the remaining binding at 0.1 µM ([2]; 100 nM) was 82% and the remaining binding at 1 µM ([2]; 1000 nM) was 89%. The remaining binding at 0.1 µM (BMPR2; 100 nM) was 98%, the remaining binding at 1 µM (BMPR2; 1000 nM) was 50% and the remaining binding at 0.1 µM (STK36; 100 nM) was 71%. The remaining binding at 1 µM (STK36; 1000 nM) was 94%, the remaining binding at 0.1 µM (DLK; 100 nM) was 71% and the remaining binding at 1 µM (DLK; 1000 nM) was 55%. The remaining binding at 0.1 µM (CDKL3; 100 nM) was 100% and the remaining binding at 1 µM (CDKL3; 1000 nM) was 83%.
